The record followed here is patent publication US9615577B2, “Herbicidally active cyclic dione compounds, or derivatives therefor, substituted by a phenyl which has an alkynyl-containing substituent” (Syngenta Limited, priority 2012, dated 2017).

What all share (assay type): in vivo
Test [1] deals with Alopecurus myosuroides (ALOMY). Briefly: Test 1A glasshouse assay for herbicidal activity, pre-emergence. The following applies: 312 h, 250 g/ha, evaluated after 13 days, read-out: percentage phytotoxicity ALOMY. Put shortly: (§1)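 Visual % phytotoxicity (0 = no damage, 100 = total damage) scored 13 d after spraying. Pots sown in standard soil; spray applied 1 d post-sowing for pre-emergence, 8 d for post-emergence. Vehicle acetone/water 50:50 + 0.5% Tween 20; glasshouse 24/16 °C, 14 h light, 65% RH, watered twice daily.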

The subject of test [2] is Amaranthus retroflexus (AMARE). The test is described as above. Particulars: 312 h, 250 g/ha, evaluated after 13 days, read-out: percentage phytotoxicity AMARE. Put shortly: as §1
Test [3] has as its system Echinochloa crus-galli (ECHCG). Described as above. Particulars: 312 h, 250 g/ha, evaluated after 13 days, read-out: percentage phytotoxicity ECHCG. Put shortly: as §1
The test system of test [4] is Setaria faberi (SETFA). Described as above. Particulars: 312 h, 250 g/ha, evaluated after 13 days, read-out: percentage phytotoxicity SETFA. Put shortly: as §1
Test [5] relates to Alopecurus myosuroides (ALOMY). Briefly: Test 1A glasshouse assay for herbicidal activity, post-emergence. Particulars: 312 h, evaluated after 13 days, read-out: percentage phytotoxicity ALOMY. Put shortly:
as §1

Test [6] relates to Amaranthus retroflexus (AMARE). Described as above. Particulars: 312 h, evaluated after 13 days, read-out: percentage phytotoxicity AMARE. Put shortly: as §1
Test [7] deals with Echinochloa crus-galli (ECHCG). The description is as above. The following applies: 312 h, evaluated after 13 days, read-out: percentage phytotoxicity ECHCG. Put shortly: as §1
Test [8] deals with Setaria faberi (SETFA). The description is as above. The following applies: 312 h, evaluated after 13 days, read-out: percentage phytotoxicity SETFA. In a few lines: as §1
Test [9] deals with Beta vulgaris (BEAVA, sugar beet). Briefly: Test 1B glasshouse assay for herbicidal activity, pre-emergence. Particulars: 480 h, 20 DAA, read-out: percentage phytotoxicity BEAVA. In a few lines: (§2)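 Plants grown in soil at 20/16° C day/night, 16 h light, 65% humidity; sprayed after 1 day (pre-emergence) or ~12 days (post-emergence) with formulated compound in 0.2% v/v X-77 adjuvant. Visual % phytotoxicity scored 20 DAA (pre) or 15 DAA (post).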

The subject of test [10] is Brassica napus (BRSNN, rape). The test is described as above. The following applies: 480 h, 20 DAA, read-out: percentage phytotoxicity BRSNN. Put shortly: as §2
Test [11] has as its system Triticum aestivum (TRZAW, winter wheat). Described as above. The following applies: 480 h, 20 DAA, read-out: percentage phytotoxicity TRZAW. Put shortly:
as §2

Test [12] concerns Echinochloa crus-galli (ECHCG). The description is as above. Particulars: 480 h, 20 DAA, read-out: percentage phytotoxicity ECHCG. In a few lines: (§3)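 Warm-climate glasshouse, 24/18° C., 16 h light, 65% humidity. Spray: IF50 (50 g/liter stock) in 0.2% v/v X-77; pre-emergence 1 day post-sowing, post-emergence ~12 days (10-13). Visual phytotoxicity 0-100%, at 15 DAA post, 20 DAA pre.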

The test system of test [13] is SORVU (Sorghum bicolor (L.) Moench ssp. Bicolor, or Sorghum vulgare Pers.). The description is as above. Particulars: 480 h, 20 DAA, read-out: percentage phytotoxicity SORVU. In a few lines:
as §3

Test [14] relates to Setaria faberi (SETFA). Described as above. Particulars: 480 h, 20 DAA, read-out: percentage phytotoxicity SETFA. In a few lines:
as §3

The test system of test [15] is Glycine max (GLXMA, soybean). In words: Test 1B glasshouse assay for herbicidal activity, post-emergence. Particulars: 360 h; for plant injury at 30 g/ha: 30 g/ha application rate; for plant injury at 125 g/ha: 125 g/ha application rate. Put shortly: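 Soybean sprayed 1 day after sowing (pre-emergence) or at about 12 days (post-emergence) with aqueous active ingredient plus 0.2% v/v X-77 adjuvant. Plants grown at 24/18 °C day/night, 16 h light, 65% humidity. Visual % phytotoxicity (100% = total damage) scored at 20 DAA pre-emergence, 15 DAA post-emergence.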

The test system of test [16] is Digitaria sanguinalis (DIGSA). The description is as above. The following applies: 360 h; for pest or weed control at 30 g/ha: 30 g/ha application rate; for pest or weed control at 125 g/ha: 125 g/ha application rate. In a few lines:
as §3

Test [17] concerns SORVU (Sorghum bicolor (L.) Moench ssp. Bicolor, or Sorghum vulgare Pers.). The description is as above. The following applies: 360 h; for pest or weed control at 30 g/ha: 30 g/ha application rate; for pest or weed control at 125 g/ha: 125 g/ha application rate. In a few lines:
as §3

Test [18] concerns Setaria faberi (SETFA). Described as above. The following applies: 360 h; for pest or weed control at 30 g/ha: 30 g/ha application rate; for pest or weed control at 125 g/ha: 125 g/ha application rate. In a few lines: as §3

Consider `CC#Cc1cc(C)c(C2=C(OC(C)=O)CC(c3ccccn3)CC2=O)c(C)c1` (stereo not shown) [Compound A-15], for which the pest or weed control at 250 g/ha in test [1] came out at 100%; in [2], 40%; in test [3], 100%; in [4], 100%; in test [5], 100%; in [6] it was 60%. Also, the pest or weed control at 250 g/ha in [7] and in test [8] was 100% each time. Moreover, the pest or weed control at 30 g/ha in test [5] came to 90%; in test [6], 0%; in [7], 100%; in test [8], 100%; in test [16], 90%; in test [17], 80%. In addition, in [18], the pest or weed control at 30 g/ha worked out at 80%. Also, the plant injury at 125 g/ha stood at 0% in test [9] (125 g/ha), 80% in test [10] (125 g/ha), 0% in test [11] (125 g/ha) and 60% in test [15]. For the same compound, the pest or weed control at 125 g/ha in test [12] (125 g/ha) is 80%; in test [13] (125 g/ha), 80%; in test [14] (125 g/ha), 80%; in [16], 100%; in test [17], 100%; in test [18], 100%. The plant injury at 30 g/ha in test [15] turned out to be 20%.

With `CC#Cc1cc(Cl)c(C2C(=O)C3CCC(C3)C2=O)c(OCC)c1` (stereo not shown) [Compound A-16], the pest or weed control at 250 g/ha in test [1] stood at 100%; in test [2], 80%; in test [3], 100%; in test [4], 100%; in [5], 100%; in test [6], 70%. Moreover, the pest or weed control at 250 g/ha in test [7] stood at 100%; in [8], 100%; in [12], 80%; in test [13], 80%; in test [14], 90%. The pest or weed control at 30 g/ha in [5] came to 90%; in [6], 30%; in test [7], 100%; in test [8], 100%; in test [16] it was 80%; in [17], 80%. The pest or weed control at 30 g/ha in test [18] was found to be 80%. Also, the plant injury at 250 g/ha in [9], in [10] and in [11] was 0% in each case. The plant injury at 30 g/ha in test [15] was 0%. In test [15], the plant injury at 125 g/ha is 30%. For the same compound, the pest or weed control at 125 g/ha in [16], in test [17] and in [18] was 100% in each case.

Take `CC#Cc1cc(Cl)c(C2C(=O)C3CCC(C)(C2=O)C3(C)C)c(OC)c1` (stereo not shown) [Compound A-17]: the pest or weed control at 250 g/ha in [1] was determined as 90%; in test [2], 60%; in test [3] it was 100%; in [4], 90%; in test [5], 90%; in test [6], 0%. Also, the pest or weed control at 250 g/ha in test [7] turned out to be 100%; in test [8], 90%; in [12] it was 100%; in test [13], 50%; in test [14], 50%; in test [16] (250 g/ha application rate), 70%. In addition, the pest or weed control at 250 g/ha in test [17] (250 g/ha application rate) and in test [18] (250 g/ha application rate) was 80% each time. For the same compound, the plant injury at 250 g/ha in [9] was 0%; in [10], 0%; in test [11], 0%; in test [15] (250 g/ha application rate) it was 10%.
